Experimental findings from US6627630B1, “Condensed pyridazine derivatives, their production and use” (Takeda Chemical Industries, Ltd., priority 1998, dated 2003) are described below.

Usually melting point stands for the temperature of the solid-liquid transition.

Regarding `COc1cn2nc(OCCCN3CCN(C(c4ccccc4)c4ccccc4)CC3)ccc2n1` [Example 42A, 6-[3-[4-(Diphenylmethyl)-1-piperazinyl]propoxy]-2-methoxyimidazo[1,2-b]pyridazine], the melting point was in the range of 144 to 146 °C.

In turn, `CC(C)(C(=O)O)c1cn2nc(NCCCN3CCC(OC(c4ccccc4)c4ccccc4)CC3)ccc2n1` [Example 43A, 2-[6-[3-[4-(Diphenylmethoxy)piperidino]propylamino]imidazo[1,2-b]pyridazin-2-yl]-2-methylpropionic Acid] displayed a melting point of 205 to 206 °C.

Molecule `Cc1cc2ncnn2nc1OCCOCCN1CCN(C(c2ccccc2)c2ccccc2)CC1` [Example 47A, 6-[2-[2-[4-(Diphenylmethyl)-1-piperazinyl]ethoxy]ethoxy]-7-methyl[1,2,4]triazolo[1,5-b]pyridazine] returned a melting point of 71 to 72 °C.

Take `Cc1cc2ncnn2nc1OCCOCCN1CCC(OC(c2ccccc2)c2ccccc2)CC1` [Example 53A, 6-[2-[2-[4-(Diphenylmethoxy)piperidino]ethoxy]ethoxy]-7-methyl[1,2,4]triazolo[1,5-b]pyridazine]: the melting point lay within 80 to 82 °C.

Consider `CC(C)(C)c1cc2ncnn2nc1SCCOCCN1CCN(C(c2ccccc2)c2ccccc2)CC1` [Example 60A, 6-[2-[2-[4-(Diphenylmethyl)-1-piperazinyl]ethoxy]ethylthio]-7-t-butyl[1,2,4]triazolo[1,5-b]pyridazine], for which the melting point fell in the range of 106 to 108 °C.

Take `CC(C)c1cc2ncnn2nc1OCCOCCN1CCN(C(c2ccccc2)c2ccccc2)CC1` [Example 61A, 6-[2-[2-[4-(Diphenylmethyl)-1-piperazinyl]ethoxy]ethoxy]-7-isopropyl[1,2,4]triazolo[1,5-b]pyridazine]: the melting point is 119 to 120 °C.

With `CCOC(=O)CNC(=O)c1cn2nc(NCCCN3CCC(OC(c4ccccc4)c4ccccc4)CC3)ccc2n1` [Example 70A, N-[6-[3-[4-(Diphenylmethoxy)piperidino]propylamino]imidazo[1,2-b]pyridazine-2-carbonyl]glycine Ethyl Ester], the melting point was 172 to 174 °C.

Consider `O=C(O)CNC(=O)c1cn2nc(NCCCN3CCC(OC(c4ccccc4)c4ccccc4)CC3)ccc2n1` [Example 72A, N-[6-[3-[4-(Diphenylmethoxy)piperidino]propylamino]imidazo[1,2-b]pyridazine-2-carbonyl]glycine], for which the melting point turned out to be 171 °C.

The molecule `CC(C)(CO)c1cn2nc(NCCCN3CCC(OC(c4ccccc4)c4ccccc4)CC3)ccc2n1` [Example 75A, 2-[6-[3-[4-(Diphenylmethoxy)piperidino]propylamino]imidazo[1,2-b]pyridazin-2-yl)-2-methylpropanol] yielded a melting point of 105 to 108 °C.

In turn, `CC(C)(C(=O)O)c1cn2nc(NCCN3CCC(OC(c4ccccc4)c4ccccc4)CC3)ccc2n1` [Example 79A, 2-[6-[2-[4-(Diphenylmethoxy)piperidino]ethylamino]imidazo[1,2-b]pyridazin-2-yl]-2-methylpropionic Acid] had a melting point of 194 to 198 °C.

Molecule `CC(C)(C(=O)O)c1nc2ccc(NCCCN3CCN(C(c4ccccc4)c4ccccc4)CC3)nn2c1Cl` [Example 85A, 2-[3-Chloro-6-[3-[4-(diphenylmethyl)-1-piperazinyl]propylamino]imidazo[1,2-b]pyridazin-2-yl]-2-methylpropionic Acid] yielded a melting point of 184 to 186 °C.

`CC(C)(C(=O)O)c1nc2ccc(OCCCN3CCN(C(c4ccccc4)c4ccccc4)CC3)nn2c1Cl` [Example 88A, 2-[3-Chloro-6-[3-[4-(diphenylmethyl)-1-piperazinyl]propoxy]imidazo[1,2-b]pyridazin-2-yl]-2-methylpropionic Acid]: the melting point lay within 118 to 121 °C.

Molecule `Cc1cc2nc(C(C)(C)C(=O)O)cn2nc1OCCCN1CCC(OC(c2ccccc2)c2ccccc2)CC1` [Example 89A, 2-[6-[3-[4-(Diphenylmethoxy)piperidino]propoxy]-7-methylimidazo[1,2-b]pyridazin-2-yl]-2-methylpropionic Acid] yielded a melting point of 122 °C.

In the case of `CCOC(=O)C(C)(C)c1cn2nc(CCCCN3CCN(C(c4ccccc4)c4ccccc4)CC3)ccc2n1` [Example 94A, Ethyl 2-[6-[4-[4-(Diphenylmethyl)-1-piperazinyl]butyl]imidazo[1,2-b]pyridazin-2-yl]-2-methylpropionate], the melting point is 105 to 106 °C.

Molecule `CC(C)(C(=O)O)c1cn2nc(CCCCN3CCN(C(c4ccccc4)c4ccccc4)CC3)ccc2n1` [Example 95A, 2-[6-[4-[4-(Diphenylmethyl)-1-piperazinyl]butyl]imidazo[1,2-b]pyridazin-2-yl]-2-methylpropionic Acid] had a melting point of 108 to 110 °C.

The molecule `O=C(O)C1(c2cn3nc(NCCCN4CCC(OC(c5ccccc5)c5ccccc5)CC4)ccc3n2)CC1` [Example 100A, 1-[6-[3-[4-(Diphenylmethoxy)piperidino]propylamino]imidazo[1,2-b]pyridazin-2-yl]cyclopropanecarboxylic Acid] came in with a melting point of 115 to 117 °C.

`CC(C)(C(=O)O)c1cn2nc(CCCN3CCC(OC(c4ccccc4)c4ccccc4)CC3)ccc2n1` [Example 102A, 2-[6-[3-[4-(Diphenylmethoxy)piperidino]propyl]imidazo[1,2-b]pyridazin-2-yl]-2-methylpropionic Acid] returned a melting point of 195 to 205 °C.

On to `CC(C)(C(=O)O)c1cn2nc(CCCN3CCN(C(c4ccccc4)c4ccccc4)CC3)ccc2n1` [Example 104A, 2-[6-[3-[4-(Diphenylmethyl)-1-piperazinyl]propyl]imidazo[1,2-b]pyridazin-2-yl]-2-methylpropionic Acid], for which the melting point lay within 176 to 178 °C.

On to `Cc1nc2ccc(NCCCN3CCC(OC(c4ccccc4)c4ccccc4)CC3)nn2c1C(=O)O` [Example 107A, [6-[3-[4-(Diphenylmethoxy)piperidino]propylamino]-2-methylimidazo[1,2-b]pyridazin-3-yl]carboxylic Acid], for which the melting point lay in the range of 101 to 103 °C.

`CCOC(=O)C(C)(C)c1cn2nc(NCCCN3CCC(NC(c4ccccc4)c4ccccc4)CC3)ccc2n1` [Example 108A, Ethyl 2-[6-[3-[4-(Diphenylmethylamino)piperidino]propylamino]imidazo[1,2-b]pyridazin-2-yl]-2-methylpropionate] showed a melting point of 115 to 117 °C.

In turn, `CCOC(=O)CNC(=O)c1nc2ccc(NCCCN3CCC(OC(c4ccccc4)c4ccccc4)CC3)nn2c1Cl` [Example 111A, N-[3-Chloro-6-[3-[4-(diphenylmethoxy)piperidino]propylamino]imidazo[1,2-b]pyridazine-2-carbonyl]glycine Ethyl Ester] had a melting point of 178 to 180 °C.

As for `CCOC(=O)CCNC(=O)c1cn2nc(NCCCN3CCC(OC(c4ccccc4)c4ccccc4)CC3)ccc2n1` [Example 112A, N-[6-[3-[4-(Diphenylmethoxy)piperidino]propylamino]imidazo[1,2-b]pyridazine-2-carbonyl]-β-alanine Ethyl Ester], the melting point was in the range of 83 to 86 °C.

For `c1ccc(C(OC2CCN(CCCCCNc3ccc4ncnn4n3)CC2)c2ccccc2)cc1` [Example 114A, 6-[5-[4-(Diphenylmethoxy)piperidino]pentylamino][1,2,4]triazolo[1,5-b]pyridazine], the melting point fell in the range of 96 to 98 °C.

Molecule `OC(CNc1ccc2ncnn2n1)CN1CCC(OC(c2ccccc2)c2ccccc2)CC1` (centres unmarked) [Example 115A, 1-[4-(Diphenylmethoxy)piperidino]-3-[([1,2,4]triazolo[1,5-b]pyridazin-6-yl)amino]-2-propanol] registered a melting point of 82 to 87 °C.

In the case of `CC(C)(C)OC(=O)c1nc2ccc(NCCCN3CCC(OC(c4ccccc4)c4ccccc4)CC3)nn2n1` [Example 116A, tert-Butyl[6-[3-[4-(Diphenylmethoxy)piperidino]propylamino][1,2,4]triazolo[1,5-b]pyridazin-2-yl]carboxylate], the melting point fell in the range of 133 to 135 °C.

As for `O=C(O)c1nc2ccc(NCCCN3CCC(OC(c4ccccc4)c4ccccc4)CC3)nn2n1` [Example 117A, [6-[3-[4-(Diphenylmethoxy)piperidino]propylamino][1,2,4]triazolo[1,5-b]pyridazin-2-yl]carboxylic Acid], the melting point is 135 to 138 °C.

The molecule `COC(=O)c1cc2ncnn2nc1NCCCN1CCC(OC(c2ccccc2)c2ccccc2)CC1` [Example 118A, Methyl[6-[3-[4-(Diphenylmethoxy)piperidino]propylamino][1,2,4]triazolo[1,5-b]pyridazin-7-yl]carboxylate] displayed a melting point of 120 to 122 °C.

For the molecule `O=C(O)c1cc2ncnn2nc1NCCCN1CCC(OC(c2ccccc2)c2ccccc2)CC1` [Example 119A, [6-[3-[4-(Diphenylmethoxy)piperidino]propylamino][1,2,4]triazolo[1,5-b]pyridazin-7-yl]carboxylic Acid], the melting point fell in the range of 207 to 209 °C.

The molecule `CC(C)OC(=O)c1nc2ccc(OCCCN3CCC(OC(c4ccccc4)c4ccccc4)CC3)nn2n1` [Example 122A, Isopropyl[6-[3-[4-(Diphenylmethoxy)piperidino]propoxy][1,2,4]triazolo[1,5-b]pyridazin-2-yl]carboxylate] showed a melting point of 126 to 127 °C.

On to `O=C(O)c1nc2ccc(OCCCN3CCC(OC(c4ccccc4)c4ccccc4)CC3)nn2n1` [Example 123A, [6-[3-[4-(Diphenylmethoxy)piperidino]propoxy][1,2,4]triazolo[1,5-b]pyridazin-2-yl]carboxylic Acid], for which the melting point is 173 to 177 °C.

With `O=C(O)CNC(=O)c1nc2ccc(NCCCN3CCC(OC(c4ccccc4)c4ccccc4)CC3)nn2n1` [Example 125A, N-[6-[3-[4-(Diphenylmethoxy)piperidino]propylamino][1,2,4]triazolo[1,5-b]pyridazine-2-carbonyl]glycine], the melting point lay within 256 to 258 °C.

Take `CCOC(=O)CNC(=O)c1nc2ccc(NCCCN3CCC(OC(c4ccccc4)c4ccccc4)CC3)nn2c1C` [Example 127A, N-[6-[3-[4-(Diphenylmethoxy)piperidino]propylamino]-3-methylimidazo[1,2-b]pyridazine-2-carbonyl]glycine Ethyl Ester]: the melting point fell in the range of 158 to 160 °C.
